Structures can show the parent of a compound that is named as a salt.
Target: recombinant human MAPKAP-K2 (Homo sapiens, UniProt P49137)
Experiment: Inhibitory activity against MAPKAP-K2 enzyme (33P-ATP peptide phosphorylation)
Assay type: biochemical
Conditions: recombinant human MAPKAP-K2, ATP 20 μmol/L solution, room temperature 30 min; read-out: Activity Strength (MAPKAP-K2 IC50 value)
Experimental: General Measurement Method for Determining the Inhibitory Activity Against MAPKAP-K2 enzyme
(Preparation of Solutions of Compounds)
Each compound was dissolved in DMSO to prepare a solution with a concentration of 20 mmol/L and this solution was stored at −20° C. This stock solution was diluted with DMSO successively to prepare solutions with 200-fold concentrations of a necessary range. These solutions were further diluted with water at a ratio of 1:20 to prepare solutions with 10-fold concentrations of a necessary range. Each of these solutions (5 μL) was used for each reaction in 50 μL-scale. Through the dilution series of all compounds, the final DMSO concentration was kept at 0.5%. Conventional tests for the compounds were carried out at a final concentration range from 100 μmol/L to 0.03 μmol/L. but in some cases, tests were carried out at lower concentrations, depending on activity.
(Measurements of MAPKAP-K2 Enzyme Activities)
To a 5% DMSO aqueous solution (5 μL) of a test compound, a solution (25 μL) containing a peptide substrate [peptide substrate 60 μmol/L, ATP 20 μmol/L, Tris buffer 60 mmol/L (pH 7.5), EGTA 0.2 mmol/L, β-mercaptoethanol 0.2%, magnesium acetate 20 mmol/L, [γ-33P]ATP 0.1 μCi (specific radioactivity ca. 110 TBq/mmol)] was added. The reaction was initiated by adding a solution (20 μL) containing MAPKAP-K2 enzyme [recombinant human MAPKAP-K2 10 mU, Tris buffer […] (pH 7.5), EGTA 0.1 mmol/L, β-mercaptoethanol 0.1%, BSA 0.1%]. After the reaction was carried out at room temperature for 30 min, 200 mmol/L phosphoric acid (50 μL) was added to quench the reaction, and 90 μL of the reaction mixture was adsorbed on a multiscreen PH plate (Millipore). The plate was washed with 100 mmol/L phosphoric acid. After the plate was dried, 30 μL of MicroScint-O (Perkin-Elmer) was added, and the count per minute was measured on a scintillation counter to determine the inhibitory activity. The peptide substrate was Lys-Lys-Leu-Asn-Arg-Thr-Leu-Ser-Val-Ala.
• % Reference=(X−B)/(Tot−B)×100 • % Inhibition=100−% Reference • X represents count per minute of the well with a test compound applied. • B represents count per minute of the well without the enzyme. • Tot represents count per minute of the well with only DMSO solvent and no test compound applied. (Calculation of MAPKAP-K2 Inhibitory Activity) • IC50 value represents a concentration of compound at which 50% inhibition is observed.

Sequence of recombinant human MAPKAP-K2 (P49137 whole entry): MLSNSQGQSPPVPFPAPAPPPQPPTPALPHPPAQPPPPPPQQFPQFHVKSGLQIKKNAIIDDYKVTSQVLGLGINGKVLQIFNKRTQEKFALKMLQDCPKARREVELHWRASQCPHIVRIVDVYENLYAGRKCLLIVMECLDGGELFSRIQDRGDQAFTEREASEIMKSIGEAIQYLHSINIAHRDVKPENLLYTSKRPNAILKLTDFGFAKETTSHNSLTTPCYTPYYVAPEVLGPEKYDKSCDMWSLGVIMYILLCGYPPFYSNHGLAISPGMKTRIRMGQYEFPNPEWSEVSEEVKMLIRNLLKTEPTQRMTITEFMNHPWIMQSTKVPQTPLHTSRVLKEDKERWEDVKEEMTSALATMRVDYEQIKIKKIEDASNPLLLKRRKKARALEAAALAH

Compound	IC50
CCOc1ccc(Nc2c(CCO)c(N[C@H]3CCCNC3)c(C#N)c3ccnn23)cc1 [Compound 90, 5-[(3S)-3-Piperidylamino]-7-(4-ethoxyphenylamino)-6-(2-hydroxyethyl)pyrazolo[1,5-a]pyridine-4-carbonitrile]	< 200 nM
CCCc1c(N[C@H]2CC[C@H](N)CC2)c(C#N)c2ccnn2c1Nc1ccc(OCC)cc1 [Compound 122, 5-(trans-4-Aminocyclohexylamino)-7-(4-ethoxyphenylamino)-6-propylpyrazolo[1,5-a]pyridine-4-carbonitrile]	< 200 nM
CCCc1c(N[C@H]2CCCNC2)c(C#N)c2ccnn2c1Nc1ccc(OCC)cc1 [Compound 121, 5-[(3S)-3-Piperidylamino]-7-(4-ethoxyphenylamino)-6-propylpyrazolo[1,5-a]pyridine-4-carbonitrile]	< 200 nM
CCOc1ccc(Nc2c(C)c(NCC3CCNC3)c(C#N)c3ccnn23)cc1 (stereo not drawn) [Compound 112, 7-[(4-Ethoxyphenyl)amino]-6-methyl-5-[(pyrrolidin-3-ylmethyl)amino]pyarzolo[1,5-a]pyridine-4-carbonitrile trifluoroacetate salt]	1000 to 10000 nM
COCCOc1ccc(Nc2c(C)c(N[C@H]3CCCNC3)c(C#N)c3ccnn23)cc1 [Compound 87, 5-[(3S)-3-Piperidylamino]-7-[4-(2-methoxyethoxy)phenylamino]-6-methylpyrazolo[1,5-a]pyridine-4-carbonitrile trifluoroacetate salt]	< 200 nM
CCOc1ccc(Nc2c(C)c(NCCC3CCCCN3)c(C#N)c3ccnn23)cc1 (stereo not drawn) [Compound 113, 7-[(4-Ethoxyphenyl)amino]-6-methyl-5-[(2-(2-piperidyl)ethyl)amino]pyrazolo[1,5-a]pyridine-4-carbonitrile trifluoroacetate salt]	10000 to 100000 nM
CCOc1ccc(Nc2c(CC)c(N[C@H]3CC[C@H](N)CC3)c(C#N)c3ccnn23)cc1 [Compound 109, 5-(trans-4-Aminocyclohexylamino)-7-(4-ethoxyphenylamino)-6-ethylpyrazolo[1,5-a]pyridine-4-carbonitrile]	< 200 nM
CCOc1ccc(Nc2c(C)c(NCC3CCCCN3)c(C#N)c3ccnn23)cc1 (stereo not drawn) [Compound 119, 7-[(4-Ethoxyphenyl)amino]-6-methyl-5-[(2-piperidylmethyl)amino]pylrazolo[1,5-a]pyridine-4-carbonitrile trifluoroacetate salt]	1000 to 10000 nM
Cc1c(N[C@H]2CCCNC2)c(C#N)c2ccnn2c1Nc1ccccc1 [Compound 111, 5-[((3S)-(3-Piperidyl))amino]-6-methyl-7-(phenylamino)pyrazolo[1,5-a]pyridine-4-carbonitrile trifluoroacetate salt]	< 200 nM
CCOc1ccc(Nc2c(C)c(NC3CCNCC3)c(C#N)c3ccnn23)cc1 [Compound 103, 7-(4-Ethoxyphenylamino)-6-methyl-5-(4-pyperidylamino)pyrazolo[1,5-a]pyridine-4-carbonitrile trifluoroacetate salt]	200 to 1000 nM
COCCOc1ccc(Nc2c(C)c(N[C@H]3CC[C@H](N)CC3)c(C#N)c3ccnn23)cc1 [Compound 89, 5-(trans-4-Aminocyclohexylamino)-7-[4-(2-methoxyethoxy)phenylamino]-6-methylpyrazolo[1,5-a]pyridine-4-carbonitrile trifluoroacetate salt]	< 200 nM
COc1ccccc1Nc1cc(N[C@H]2CC[C@H](N)CC2)c(C#N)c2ccnn12 [Compound 98, 5-(trans-4-Aminocyclohexylamino)-7-(2-methoxyphenylamino)pyrazolo[1,5-a]pyridine-4-carbonitrile trifluoroacetate salt]	200 to 1000 nM
CCOc1ccc(Nc2c(C)c(NCCN)c(C#N)c3ccnn23)cc1 [Compound 106, 5-[(2-Aminoethyl)amino]-7-[(4-ethoxyphenyl)amino]-6-methylpyrazolo[1,5-a]pyridine-4-carbonitrile trifluoroacetate salt]	200 to 1000 nM
CCOc1ccc(Nc2c(C)c(NCCCNC3CCCCC3)c(C#N)c3ccnn23)cc1 [Compound 120, 5-{[3-(Cyclohexylamino)propyl]amino}-7-[(4-ethoxyphenyl)amino]-6-methylpyrazolo[1,5-a]pyridine-4-carbonitrile trifluoroacetate salt]	1000 to 10000 nM
CCOc1ccc(Nc2c(C)c(N[C@H]3CC[C@H](NCC4CCCCC4)CC3)c(C#N)c3ccnn23)cc1 [Compound 126, 5-({4-[(Cyclohexylmethyl)amino]cyclohexyl}amino)-7-[(4-ethoxyphenyl)amino]-6-methylpyrazolo[1,5-a]pyridine-4-carbonitrile trifluoroacetate salt]	200 to 1000 nM
CCOc1ccc(Nc2c(C)c(N[C@H]3CC[C@H](NCc4ccccc4)CC3)c(C#N)c3ccnn23)cc1 [Compound 115, 7-[(4-Ethoxyphenyl)amino]-6-methyl-5-[trans-{4-(benzylamino)cyclohexyl]amino}pyrazolo[1,5-a]pyridine-4-carbonitrile trifluoroacetate salt]	200 to 1000 nM
COCCOc1ccc(Nc2c(C)c(N[C@H]3CCNC3)c(C#N)c3ccnn23)cc1 [Compound 88, 5-[(3S)-3-Pyrrolidylamino]-7-[4-(2-methoxyethoxy)phenylamino]-6-methylpyrazolo[1,5-a]pyridine-4-carbonitrile trifluoroacetate salt]	200 to 1000 nM
CCOc1ccc(Nc2c(C)c(NCCCCN)c(C#N)c3ccnn23)cc1 [Compound 108, 5-[(4-Aminobutyl)amino]-7-[(4-ethoxyphenyl)amino]-6-methylpyrazolo[1,5-a]pyridine-4-carbonitrile trifluoroacetate salt]	200 to 1000 nM
CCOc1ccc(Nc2c(C3CC3)c(N[C@H]3CCCNC3)c(C#N)c3ccnn23)cc1 [Compound 130, 5-[(3S)-3-Piperidylamino]-7-(4-ethoxyphenylamino)-6-cyclopropylpyrazolo[1,5-a]pyridine-4-carbonitrile]	200 to 1000 nM
CCOc1ccc(Nc2c(C(C)C)c(N[C@H]3CC[C@H](N)CC3)c(C#N)c3ccnn23)cc1 [Compound 124, 5-(trans-4-Aminocyclohexylamino)-7-(4-ethoxyphenylamino)-6-(methylethyl)pyrazolo[1,5-a]pyridine-4-carbonitrile]	< 200 nM
CCOc1ccc(Nc2c(-c3ccccc3)c(NC3CCCNC3)c(C#N)c3ccnn23)cc1 (stereo not drawn) [Compound 95, 5-(3-Piperidylamino)-7-(4-ethoxyphenylamino)-6-phenylpyrazolo[1,5-a]pyridine-4-carbonitrile trifluoroacetate salt]	200 to 1000 nM
CCOc1ccc(Nc2c(C)c(N[C@H]3CCCC[C@@H]3N)c(C#N)c3ccnn23)cc1 (relative stereo) [Compound 101, 5-[(trans-2-Aminocyclohexyl)amino]-7-(4-ethoxyphenylamino)-6-methylpyrazolo[1,5-a]pyridine-4-carbonitrile trifluoroacetate salt]	10000 to 100000 nM
CCOc1ccc(Nc2c(C)c(NCCC3CCCN3C)c(C#N)c3ccnn23)cc1 (stereo not drawn) [Compound 133, 7-[(4-Ethoxyphenyl)amino]-6-methyl-5-{[2-(1-methylpyrrolidin-2-yl)ethyl]amino}pyrazolo[1,5-a]pyridine-4-carbonitrile trifluoroacetate salt]	10000 to 100000 nM
CCOc1ccc(Nc2c(C3CC3)c(N[C@H]3CC[C@H](N)CC3)c(C#N)c3ccnn23)cc1 [Compound 131, 5-(trans-4-Amionocyclohexylamino)-7-(4-ethoxyphenylamino)-6-cyclopropylpyrazolo[1,5-a]pyridine-4-carbonitrile]	< 200 nM
CCOc1ccc(Nc2c(C)c(NC3CNCc4ccccc43)c(C#N)c3ccnn23)cc1 (stereo not drawn) [Compound 127, 7-[(4-Ethoxyphenyl)amino]-6-methyl-5-[4-(1,2,3,4-tetrahydroisoquinolyl)amino]pyrazolo[1,5-a]pyridine-4-carbonitrile trifluoroacetate salt]	1000 to 10000 nM
CCOc1ccc(Nc2c(C)c(N[C@H]3CCCNC3)c(C#N)c3ccnn23)cc1 [Compound 85, 5-[(3S)-3-piperidylamino]-7-(4-ethoxyphenylamino)-6-methylpyrazolo[1,5-a]pyridine-4-carbonitrile]	< 200 nM
N#Cc1c(N[C@H]2CC[C@H](N)CC2)cc(Nc2ccc(-c3ccccc3)cc2)n2nccc12 [Compound 97, 5-(trans-4-Aminocyclohexylamino)-7-(4-biphenylylamino)pyrazolo[1,5-a]pyridine-4-carbonitrile trifluoroacetate salt]	< 200 nM

From patent publication US7417053B2, “Pyrazolo[1,5-a]pyridine derivatives or pharmaceutically acceptable salts thereof” (Teijin Pharma Limited, priority 2005, dated 2008)
